This note sets out measurements from patent US11186588B2 (AYUMI PHARMACEUTICAL CORPORATION, priority 2017, dated 2021).

The subject of one experiment is NF-κB. Kind of experiment: NF-κB reporter gene assay (TNF-α stimulated A549/NF-κB-luc cells). The note with it: Homo sapiens, TNF-α stimulation. It counts as cell-based. The procedure, abridged: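 A549 cells stably carrying an NF-κB luciferase reporter were preincubated with compound for 1 h, then stimulated with TNF-α for 3 h. Luminescence was read with Steady-Glo, and inhibition was scaled between blank and DMSO control wells. IC50 was obtained by curve fitting.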

A further experiment relates to IL-6 production. Kind of experiment: LPS-induced IL-6 production model test. The experiment is classed as in vivo, C57BL/6J mice. Particulars: Mus musculus, 1 h; 10 mg/kg oral, 30 min before LPS 1 mg/kg i.p., serum IL-6 60 min after LPS, mice. The method, then:
In order to evaluate the inhibitory activity of inflammatory cytokine production in the present compounds, LPS-induced IL-6 production model evaluation was carried out. The specific method is described below.
An appropriate amount of each compound was weighed, triturated with an agate mortar, and suspended or dissolved in 1% methyl cellulose solution to prepare 1 mg/mL solution.
C57BL/6J mice (male, Purchaser: Charles River Laboratories Japan, Inc.) were weighted, before divided into normal group, control group and each compound-administered group based on the measured body weight using a random number, wherein each group contained 6 samples. The mice were manually held in hands and forced orally administered the 1% methyl cellulose solution (normal and control group) or each administration solution comprising the compound (each compound-administered group) at a dose of 10 mL/kg into stomach using a feeding needle. After 30 minutes from administration of the 1% methyl cellulose solution or each compound administration solution, the mice were manually held in hands and intraperitoneally administered physiological saline (normal group) or LPS solution (control and each compound-administered group) at a dose of 1 mg/kg. After 60 minutes from administration of the LPS solution, whole blood was collected from the abdominal vena cava of each mouse under isoflurane inhalation anesthesia (available from Mylan Seiyaku Ltd.), and the mice were euthanized. The collected blood was allowed to stand at room temperature for one hour, and then centrifuged at 1,500 G for 10 minutes to collect a serum (supernatant). The collected serum was stored in a deep freezer set at −80° C. until the measurement of IL-6 in the serum. The IL-6 concentration in the serum of each mouse was measured by a commercially available kit (available from R&D systems, Cat No. M6000B), according to the protocol attached thereto.
The IL-6 production inhibition rate (%) was calculated by the following equation using Microsoft EXCEL 2010. IL-6 production inhibition rate (%)=100−{(average value of IL-6 concentration in serum of each compound-administered group)−(average value of IL-6 concentration in serum of normal group))/(average value of IL-6 concentration in serum of control group)−(average value of IL-6 concentration in serum of normal group)}×100

For experiment [1], the target named is Recombinant BRD4 (44-168) protein (Homo sapiens (Human), UniProt O60885). Kind of experiment: BRD4-H4KAc4 binding assay (amplified luminescence proximity homogeneous assay, AlphaScreen). The note with it: 10 uM. The procedure, abridged:
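His/FLAG-tagged BRD4 (44-168) and biotinylated tetra-acetylated H4 peptide, each added as 250 nM solutions, incubated with compound 60 min at room temperature in the dark, then AlphaScreen beads 60 min. Emission 520-620 nm at 680 nm excitation, duplicates; % inhibition from blank- and DMSO-corrected signal.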
(Bead proximity is the source of the signal in Alpha formats.)

pIC50: −log10 of the molar value.

The term pIC50 denotes the IC50 on a negative log10 scale, so that one unit is a factor of ten. A lower pIC50 goes with a high IC50. By inhibition in vivo is commonly meant how much of the control response was suppressed. For orientation: inhibition means the percentage by which the read-out fell short of the control. As to `COc1ncccc1CN1N=C(c2ccc(Cl)cc2)c2c(sc(C)c2C)-n2c(C)nnc21` [Example 49, 4-(4-chlorophenyl)-6-((2-methoxypyridin-3-yl)methyl)-2,3,9-trimethyl-6H-thieno[2,3-e][1,2,4]triazolo[3,4-c][1,2,4]triazepine], the pIC50 in the experiment with NF-κB is 6.70. Moreover, in the experiment with IL-6 production, the inhibition in vivo at 10 mg/kg was 17.9%. For the same molecule, the inhibition at 10 µM in experiment [1] was determined as 100%.
As to `COc1ncc(F)cc1CN1N=C(c2ccc(Cl)cc2)c2c(sc(C)c2C)-n2c(C)nnc21` [Example 89, 4-(4-chlorophenyl)-6-((5-fluoro-2-methoxypyridin-3-yl)methyl)-2,3,9-trimethyl-6H-thieno[2,3-e][1,2,4]triazolo[3,4-c][1,2,4]triazepine], the pIC50 in the experiment on NF-κB is 6.26. Further, the inhibition at 10 µM in experiment [1] amounted to 100%.
On the same counts, the results for `Cc1sc2c(c1C)C(c1ccccc1)=NN(Cc1cccnc1F)c1nnc(C)n1-2` [Example 90, 6-((2-fluoropyridin-3-yl)methyl)-2,3,9-trimethyl-4-phenyl-6H-thieno[2,3-e][1,2,4]triazolo[3,4-c][1,2,4]triazepine] are 6.53 and 100%.
Consider `Cc1sc2c(c1C)C(c1ccc(N)cc1)=NN(Cc1cccnc1)c1nnc(C)n1-2` [Example 92, 4-(2,3,9-trimethyl-6-(pyridin-3-ylmethyl)-6H-thieno[2,3-e][1,2,4]triazolo[3,4-c][1,2,4]triazepin-4-yl)aniline], for which, in the experiment on NF-κB, the pIC50 is 7.47. In the experiment on IL-6 production, this molecule returned an inhibition in vivo at 10 mg/kg of 71%.
On the same counts, the results for `CC(=O)Nc1ccc(C2=NNc3nnc(C)n3-c3sc(C)c(C)c32)cc1` [Example 94, N-(4-(2,3,9-trimethyl-6H-thieno[2,3-e][1,2,4]triazolo[3,4-c][1,2,4]triazepin-4-yl)phenyl)acetamide] are 7.02 and 45.7%.
